Among the data in patent US12723063B2, “GIPR-agonist compounds” (Eli Lilly and Company, priority 2019, dated 2026) are Ki values, retold here.

The target of one test is T1, human GcgR (Homo sapiens, UniProt P47871).
T1 construct: expressed in transfected cells; crude membranes
Kind of test: [125I]-Glucagon binding, SPA with WGA beads, 0.1% bacitracin. Particulars: geometric mean, read-out: hGcgR Ki. An outline of the steps: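 SPA competition binding with WGA beads on crude membranes from HEK293 cells stably expressing hGcgR. Buffer: 25 mM HEPES pH 7.4, 2.5 mM CaCl2, 1 mM MgCl2, 0.1% bacitracin, 0.003% Tween-20; 10-point 3-fold dilutions, NSB with 1 μM Gcg.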

A further test concerns the target T2, human GIPR (Homo sapiens, UniProt P48546).
T2 construct: expressed in transfected cells; crude membranes
T2 sequence (P48546 22-466): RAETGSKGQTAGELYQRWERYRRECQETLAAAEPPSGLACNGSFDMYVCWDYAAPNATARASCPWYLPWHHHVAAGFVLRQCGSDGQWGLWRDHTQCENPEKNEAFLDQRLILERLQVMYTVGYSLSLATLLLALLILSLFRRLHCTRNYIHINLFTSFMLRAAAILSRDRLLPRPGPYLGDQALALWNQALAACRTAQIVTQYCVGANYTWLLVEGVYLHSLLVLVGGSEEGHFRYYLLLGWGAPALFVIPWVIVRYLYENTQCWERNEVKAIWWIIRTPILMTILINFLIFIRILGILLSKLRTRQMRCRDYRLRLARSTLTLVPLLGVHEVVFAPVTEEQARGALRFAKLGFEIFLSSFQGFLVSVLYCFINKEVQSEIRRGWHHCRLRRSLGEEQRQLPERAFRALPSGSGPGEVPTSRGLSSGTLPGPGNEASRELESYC
Kind of test: [125I]-GIP binding, SPA with WGA beads, 0.1% bacitracin. The settings on record: geometric mean, read-out: hGIPR Ki. An outline of the steps:
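Ki values are geometric means (SEM, n independent days), derived from four-parameter nonlinear regression of IC50. Membranes came from hGIPR-expressing CHO cells.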

*1 amine or outer side, *2 acyl side, *3 side chain or, on linkers, in order; H or OH if unused. Where a SMILES comes first, the peptide text is derived from it. Side-chain parts run from the residue outwards. [ ]: non-standard residue; d: D form. The star is where a group is joined. C20 diacid = O=C(O)CCCCCCCCCCCCCCCCCCC(=O)*; C18 diacid = O=C(O)CCCCCCCCCCCCCCCCC(=O)*; γGlu = O=C(O)[C@H](CCC(=O)[*:2])N[*:1]; αMeF = C[C@](N)(Cc1ccccc1)C(=O)O; 4Pal = N[C@@H](Cc1ccncc1)C(=O)O; AEEA = NCCOCCOCC(=O)O; Aib = CC(C)(N)C(=O)O

T1 sequence (P47871 26-477): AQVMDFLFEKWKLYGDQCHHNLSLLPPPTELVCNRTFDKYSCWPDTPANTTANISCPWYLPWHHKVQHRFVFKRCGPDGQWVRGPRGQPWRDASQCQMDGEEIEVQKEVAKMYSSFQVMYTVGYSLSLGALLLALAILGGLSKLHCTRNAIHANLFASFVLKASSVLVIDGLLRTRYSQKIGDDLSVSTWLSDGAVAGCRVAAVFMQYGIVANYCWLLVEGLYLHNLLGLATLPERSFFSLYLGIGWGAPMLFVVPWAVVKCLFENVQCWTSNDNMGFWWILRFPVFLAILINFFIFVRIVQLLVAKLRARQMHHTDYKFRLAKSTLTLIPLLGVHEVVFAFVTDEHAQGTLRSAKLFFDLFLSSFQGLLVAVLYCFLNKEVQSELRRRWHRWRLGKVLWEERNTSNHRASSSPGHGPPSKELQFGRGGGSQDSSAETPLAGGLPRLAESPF

Regarding `CC[C@H](C)[C@H](NC(=O)[C@H](CO)NC(=O)[C@H](Cc1ccc(O)cc1)NC(=O)[C@H](CC(=O)O)NC(=O)[C@H](CO)NC(=O)[C@@H](NC(=O)[C@H](Cc1ccccc1)NC(=O)[C@@H](NC(=O)CNC(=O)[C@H](CCC(=O)O)NC(=O)[C@@H](C)NC(=O)[C@@H](N)Cc1ccc(O)cc1)[C@@H](C)O)[C@@H](C)CC)C(=O)N[C@@H](CC(C)C)C(=O)N[C@@H](CC(C)C)C(=O)N[C@@H](CC(=O)O)C(=O)N[C@@H](CCCCN)C(=O)N[C@@H](CCCCNC(=O)COCCOCCNC(=O)COCCOCCNC(=O)CC[C@H](NC(=O)CCCCCCCCCCCCCCCCC(=O)O)C(=O)O)C(=O)N[C@@H](C)C(=O)N[C@@H](CCC(N)=O)C(=O)NC(C)(C)C(=O)N[C@@H](CCC(=O)O)C(=O)N[C@@H](Cc1ccccc1)C(=O)N[C@H](C(=O)N[C@@H](CC(N)=O)C(=O)N[C@@H](Cc1c[nH]c2ccccc12)C(=O)N[C@@H](CC(C)C)C(=O)N[C@@H](CC(C)C)C(=O)N[C@@H](C)C(=O)N[C@@H](CCC(N)=O)C(=O)NCC(=O)N1CCC[C@H]1C(=O)N[C@@H](CO)C(=O)N[C@@H](CO)C(=O)NCC(=O)N[C@@H](C)C(=O)N1CCC[C@H]1C(=O)N1CCC[C@H]1C(=O)N1CCC[C@H]1C(=O)N[C@@H](CO)C(N)=O)C(C)C` [Example 20] (H-Y[dA]EGTFISDYSILLDKK([AEEA-AEEA-γGlu-C18 diacid])AQ[Aib]EFVNWLLAQGPSSGAPPPS-NH2), the Ki stood at 216 nM on human GcgR and 0.0477 nM at human GIPR.

Turning to `CC[C@H](C)[C@H](NC(=O)[C@H](CO)NC(=O)[C@H](Cc1ccc(O)cc1)NC(=O)[C@H](CC(=O)O)NC(=O)[C@H](CO)NC(=O)[C@@H](NC(=O)[C@H](Cc1ccccc1)NC(=O)[C@@H](NC(=O)CNC(=O)[C@H](CCC(=O)O)NC(=O)C(C)(C)NC(=O)[C@@H](N)Cc1ccc(O)cc1)[C@@H](C)O)[C@@H](C)CC)C(=O)N[C@@H](C)C(=O)N[C@@H](CC(C)C)C(=O)N[C@@H](CC(=O)O)C(=O)N[C@@H](CCCCN)C(=O)N[C@@H](CCCCNC(=O)COCCOCCNC(=O)COCCOCCNC(=O)CC[C@H](NC(=O)CCCCCCCCCCCCCCCCC(=O)O)C(=O)O)C(=O)N[C@@H](Cc1c[nH]cn1)C(=O)N[C@@H](CCC(N)=O)C(=O)NC(C)(C)C(=O)N[C@@H](CC(=O)O)C(=O)N[C@@H](Cc1ccccc1)C(=O)N[C@H](C(=O)N[C@@H](CCC(=O)O)C(=O)N[C@@H](Cc1ccncc1)C(=O)N[C@@H](CC(C)C)C(=O)N[C@@H](CC(C)C)C(=O)N[C@@H](C)C(=O)NCC(=O)NCC(=O)N1CCC[C@H]1C(=O)N[C@@H](CO)C(=O)N[C@@H](CO)C(=O)NCC(=O)N[C@@H](C)C(=O)N1CCC[C@H]1C(=O)N1CCC[C@H]1C(=O)N1CCC[C@H]1C(=O)N[C@@H](CO)C(N)=O)C(C)C` [Example 21] (H-Y[Aib]EGTFISDYSIALDKK([AEEA-AEEA-γGlu-C18 diacid])HQ[Aib]DFVE[4Pal]LLAGGPSSGAPPPS-NH2), the figures for the inhibition constant Ki at human GcgR and at human GIPR were above 1530 nM and 1.46 nM, respectively.

For `CC[C@H](C)[C@H](NC(=O)[C@H](CO)NC(=O)[C@H](Cc1ccc(O)cc1)NC(=O)[C@H](CC(=O)O)NC(=O)[C@H](CO)NC(=O)[C@@H](NC(=O)[C@H](Cc1ccccc1)NC(=O)[C@@H](NC(=O)CNC(=O)[C@H](CCC(=O)O)NC(=O)C(C)(C)NC(=O)[C@@H](N)Cc1ccc(O)cc1)[C@@H](C)O)[C@@H](C)CC)C(=O)N[C@@H](CC(C)C)C(=O)N[C@@H](CC(C)C)C(=O)N[C@@H](CC(=O)O)C(=O)N[C@@H](CCCCN)C(=O)N[C@@H](CCCCNC(=O)COCCOCCNC(=O)COCCOCCNC(=O)CC[C@H](NC(=O)CCCCCCCCCCCCCCCCC(=O)O)C(=O)O)C(=O)N[C@@H](Cc1c[nH]cn1)C(=O)N[C@@H](CCC(N)=O)C(=O)NC(C)(C)C(=O)N[C@@H](CC(=O)O)C(=O)N[C@@H](Cc1ccccc1)C(=O)N[C@H](C(=O)N[C@@H](CCC(=O)O)C(=O)N[C@@H](Cc1ccncc1)C(=O)N[C@@H](CC(C)C)C(=O)N[C@@H](CC(C)C)C(=O)N[C@@H](C)C(=O)NCC(=O)NCC(=O)N1CCC[C@H]1C(=O)N[C@@H](CO)C(=O)N[C@@H](CO)C(=O)NCC(=O)N[C@@H](C)C(=O)N1CCC[C@H]1C(=O)N1CCC[C@H]1C(=O)N1CCC[C@H]1C(=O)N[C@@H](CO)C(N)=O)C(C)C` [Example 22], the inhibition constant Ki at human GcgR was above 1380 nM; at human GIPR it was 0.219 nM.

`CC[C@H](C)[C@H](NC(=O)[C@H](CO)NC(=O)[C@H](Cc1ccc(O)cc1)NC(=O)[C@H](CC(=O)O)NC(=O)[C@H](CO)NC(=O)[C@@H](NC(=O)[C@](C)(Cc1ccccc1)NC(=O)[C@@H](NC(=O)CNC(=O)[C@H](CCC(=O)O)NC(=O)C(C)(C)NC(=O)[C@@H](N)Cc1ccc(O)cc1)[C@@H](C)O)[C@@H](C)CC)C(=O)N[C@@H](C)C(=O)N[C@@H](CC(C)C)C(=O)N[C@@H](CC(=O)O)C(=O)N[C@@H](CCCCN)C(=O)N[C@@H](CCCCNC(=O)COCCOCCNC(=O)COCCOCCNC(=O)CC[C@H](NC(=O)CCCCCCCCCCCCCCCCC(=O)O)C(=O)O)C(=O)N[C@@H](Cc1c[nH]cn1)C(=O)N[C@@H](CCC(N)=O)C(=O)NC(C)(C)C(=O)N[C@@H](CC(=O)O)C(=O)N[C@@H](Cc1ccccc1)C(=O)N[C@H](C(=O)N[C@@H](CCC(=O)O)C(=O)N[C@@H](Cc1ccncc1)C(=O)N[C@@H](CC(C)C)C(=O)N[C@@H](CC(C)C)C(=O)N[C@@H](C)C(=O)NCC(=O)NCC(=O)N1CCC[C@H]1C(=O)N[C@@H](CO)C(=O)N[C@@H](CO)C(=O)NCC(=O)N[C@@H](C)C(=O)N1CCC[C@H]1C(=O)N1CCC[C@H]1C(=O)N1CCC[C@H]1C(=O)N[C@@H](CO)C(N)=O)C(C)C` [Example 23] (H-Y[Aib]EGT[αMeF]ISDYSIALDKK([AEEA-AEEA-γGlu-C18 diacid])HQ[Aib]DFVE[4Pal]LLAGGPSSGAPPPS-NH2): the Ki amounted to 323 nM on human GcgR and 0.0341 nM at human GIPR.

For the compound `CC[C@H](C)[C@H](NC(=O)[C@H](Cc1ccccc1)NC(=O)[C@@H](NC(=O)CNC(=O)[C@H](CCC(=O)O)NC(=O)C(C)(C)NC(=O)[C@@H](N)Cc1ccc(O)cc1)[C@@H](C)O)C(=O)N[C@@H](CO)C(=O)N[C@@H](CC(=O)O)C(=O)N[C@@H](Cc1ccc(O)cc1)C(=O)N[C@@H](CO)C(=O)N[C@H](C(=O)NC(C)(C)C(=O)N[C@@H](CC(C)C)C(=O)N[C@@H](CC(=O)O)C(=O)N[C@@H](CCCCN)C(=O)N[C@@H](CCCCNC(=O)COCCOCCNC(=O)COCCOCCNC(=O)CC[C@H](NC(=O)CCCCCCCCCCCCCCCCC(=O)O)C(=O)O)C(=O)N[C@@H](Cc1c[nH]cn1)C(=O)N[C@@H](CCC(N)=O)C(=O)NC(C)(C)C(=O)N[C@@H](CC(=O)O)C(=O)N[C@@H](Cc1ccccc1)C(=O)N[C@H](C(=O)N[C@@H](CCC(=O)O)C(=O)N[C@@H](Cc1ccncc1)C(=O)N[C@@H](CC(C)C)C(=O)N[C@@H](CC(C)C)C(=O)N[C@@H](C)C(=O)NCC(=O)NCC(=O)N1CCC[C@H]1C(=O)N[C@@H](CO)C(=O)N[C@@H](CO)C(=O)NCC(=O)N[C@@H](C)C(=O)N1CCC[C@H]1C(=O)N1CCC[C@H]1C(=O)N1CCC[C@H]1C(=O)N[C@@H](CO)C(N)=O)C(C)C)[C@@H](C)CC` [Example 24], the Ki at human GcgR was above 960 nM; on human GIPR, 0.254 nM.

Take `CC[C@H](C)[C@H](NC(=O)[C@H](CO)NC(=O)[C@H](Cc1ccc(O)cc1)NC(=O)[C@H](CC(=O)O)NC(=O)[C@H](CO)NC(=O)[C@@H](NC(=O)[C@](C)(Cc1ccccc1)NC(=O)[C@@H](NC(=O)CNC(=O)[C@H](CCC(=O)O)NC(=O)C(C)(C)NC(=O)[C@@H](N)Cc1ccc(O)cc1)[C@@H](C)O)[C@@H](C)CC)C(=O)N[C@@H](C)C(=O)N[C@@H](CC(C)C)C(=O)N[C@@H](CC(=O)O)C(=O)N[C@@H](CCCCN)C(=O)N[C@@H](CCCCNC(=O)COCCOCCNC(=O)COCCOCCNC(=O)CC[C@H](NC(=O)CCCCCCCCCCCCCCCCCCC(=O)O)C(=O)O)C(=O)N[C@@H](Cc1c[nH]cn1)C(=O)N[C@@H](CCC(N)=O)C(=O)NC(C)(C)C(=O)N[C@@H](CCC(=O)O)C(=O)N[C@@H](Cc1ccccc1)C(=O)N[C@H](C(=O)N[C@@H](CC(N)=O)C(=O)N[C@@H](Cc1c[nH]c2ccccc12)C(=O)N[C@@H](CC(C)C)C(=O)N[C@@H](CC(C)C)C(=O)N[C@@H](C)C(=O)NCC(=O)NCC(=O)N1CCC[C@H]1C(=O)N[C@@H](CO)C(=O)N[C@@H](CO)C(=O)NCC(=O)N[C@@H](C)C(=O)N1CCC[C@H]1C(=O)N1CCC[C@H]1C(=O)N1CCC[C@H]1C(=O)N[C@@H](CO)C(N)=O)C(C)C` [Example 25] (H-Y[Aib]EGT[αMeF]ISDYSIALDKK([AEEA-AEEA-γGlu-C20 diacid])HQ[Aib]EFVNWLLAGGPSSGAPPPS-NH2): the inhibition constant (Ki) at human GcgR was found to be 101 nM; at human GIPR it was 0.0417 nM.
